Results from US20220380374A1, “1,4-DIHYDROBENZO[D]PYRAZOLO[3,4-F][1,3]DIAZEPINE DERIVATIVES AND RELATED COMPOUNDS AS LRRK2, NUAK1 AND/OR TYK2 KINASE MODULATORS FOR THE TREATMENT OF E.G. AUTOIMMUNE DISEASE” (Origenis GMBH, priority 2019, published 2022).

biological target: T1, wt human NUAK1, full length (Homo sapiens, UniProt O60285); test: TR-FRET LanthaScreen Eu Kinase Binding Assay, NUAK1; conditions: 5 nM Kinase Tracer 236; read-out: IC50, inhibitory activity toward NUAK1
T1 construct: 8 nM wt human NUAK1, full length (ThermoFisher/USA); purchased ThermoFisher/USA
T1 sequence (O60285 1-661): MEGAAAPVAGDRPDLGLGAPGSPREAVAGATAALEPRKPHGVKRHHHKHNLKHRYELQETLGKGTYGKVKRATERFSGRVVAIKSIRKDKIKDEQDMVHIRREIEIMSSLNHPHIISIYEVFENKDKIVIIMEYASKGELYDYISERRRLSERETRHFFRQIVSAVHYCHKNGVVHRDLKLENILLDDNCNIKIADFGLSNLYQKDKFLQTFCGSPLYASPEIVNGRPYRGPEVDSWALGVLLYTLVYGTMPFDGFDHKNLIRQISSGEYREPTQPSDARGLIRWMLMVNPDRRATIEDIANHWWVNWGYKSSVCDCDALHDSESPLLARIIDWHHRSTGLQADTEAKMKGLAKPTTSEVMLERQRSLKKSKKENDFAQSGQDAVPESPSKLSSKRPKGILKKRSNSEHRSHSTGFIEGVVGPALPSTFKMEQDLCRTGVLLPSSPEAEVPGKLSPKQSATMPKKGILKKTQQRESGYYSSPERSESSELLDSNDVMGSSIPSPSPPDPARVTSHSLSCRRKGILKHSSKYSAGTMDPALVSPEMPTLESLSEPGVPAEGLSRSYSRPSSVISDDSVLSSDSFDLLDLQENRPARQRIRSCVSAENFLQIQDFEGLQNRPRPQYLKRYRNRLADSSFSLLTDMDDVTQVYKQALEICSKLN
Procedure: The basic protocol for TR-FRET LanthaScreen Eu Kinase Binding Assay inhibitor studies were performed as follows. LanthaScreen Kinase Binding Assays (ThermoFisher/USA) to evaluate inhibitors were performed by addition of 5 μl of test compound in corresponding DMSO dilutions/5 μl of kinase/antibody mixture, 5 μl of tracer into 384 well small volume plates. After incubation for 1 hour at room temperature, plates were read. Data analysis of emission ratios was according to LanthaScreen Eu Kinase Binding Assay protocol.
Kinase and assay components were adjusted to final concentrations according to the kit protocol. For LRRK2: 5 nM wt human LRRK2, catalytic site, or G2019S human LRRK2, catalytic site (ThermoFisher/USA), 2 nM Eu-Anti-GST Antibody, 10 nM Kinase Tracer 236 in 1× Kinase Buffer A. For NUAK1: 8 nM wt human NUAK1, full length (ThermoFisher/USA), 2 nM Eu-Anti-His Antibody, 5 nM Kinase Tracer 236 in 1× Kinase Buffer A.

SMILES	IC50
Fc1cccc(F)c1C1=Nc2cn[nH]c2-c2cc(OC3CCOCC3)ccc2N1 [Compound 102, 5-(2,6-difluorophenyl)-9-((tetrahydro-2H-pyran-4-yl)oxy)-1,6-dihydrobenzo[d]pyrazolo[3,4-f][1,3]diazepine]	100 to 1000 nM
Cc1ccc2c(c1)-c1[nH]ncc1N=C(c1c(F)cc(Br)cc1F)N2 [Compound 176, 5-(4-bromo-2,6-difluorophenyl)-9-methyl-1,6-dihydrobenzo[d]pyrazolo[3,4-f][1,3]diazepine]	100 to 1000 nM
CC(C)Oc1ccc2c(c1)NC(c1c(F)cccc1F)=Nc1cn[nH]c1-2 [Compound 100, 5-(2,6-difluorophenyl)-8-isopropoxy-1,6-dihydrobenzo[d]pyrazolo[3,4-f][1,3]diazepine]	100 to 1000 nM
OCCc1ccc2c(c1)-c1n[nH]cc1NC(c1c(F)cccc1F)=N2 [Compound 208, 2-(5-(2,6-difluorophenyl)-2,4-dihydrobenzo[d]pyrazolo[3,4-f][1,3]diazepin-9-yl)ethan-1-ol]	100 to 1000 nM
Cc1ccc2c(c1)-c1n[nH]cc1NC(c1c(F)cc(C(F)(F)F)cc1F)=N2 [Compound 205, 5-(2,6-difluoro-4-(trifluoromethyl)phenyl)-9-methyl-2,4-dihydrobenzo[d]pyrazolo[3,4-f][1,3]diazepine]	100 to 1000 nM
Cc1ccc2c(c1)-c1n[nH]cc1NC(c1c(F)ccc(C)c1F)=N2 [Compound 178, 5-(2,6-difluoro-3-methylphenyl)-9-methyl-2,4-dihydrobenzo[d]pyrazolo[3,4-f][1,3]diazepine]	10 to 100 nM
Fc1cccc(F)c1C1=Nc2cn[nH]c2-c2cc(C(F)(F)F)ccc2N1 [Compound 46, 5-(2,6-difluorophenyl)-9-(trifluoromethyl)-1,6-dihydrobenzo[d]pyrazolo[3,4-f][1,3]diazepine]	10 to 100 nM
COc1cc(F)c(C2=Nc3cn[nH]c3-c3cc(C)ccc3N2)c(F)c1 [Compound 173, 5-(2,6-difluoro-4-methoxyphenyl)-9-methyl-1,6-dihydrobenzo[d]pyrazolo[3,4-f][1,3]diazepine]	10 to 100 nM
Cc1ccc2c(c1)-c1[nH]ncc1N=C(c1c(F)ccc(N)c1F)N2 [Compound 177, 2,4-difluoro-3-(9-methyl-1,6-dihydrobenzo[d]pyrazolo[3,4-f][1,3]diazepin-5-yl)aniline]	100 to 1000 nM
CN(C)C(=O)Oc1ccc2c(c1)-c1[nH]ncc1NC(c1c(F)cccc1F)=N2 [Compound 136, 5-(2,6-difluorophenyl)-1,4-dihydrobenzo[d]pyrazolo[3,4-f][1,3]diazepin-9-yl dimethylcarbamate]	100 to 1000 nM
NC(=O)c1cnc2c(c1)-c1[nH]ncc1N=C(c1c(F)cccc1F)N2 [Compound 140, 5-(2,6-difluorophenyl)-1,6-dihydropyrazolo[4,3-d]pyrido[3,2-f][1,3]diazepine-9-carboxamide]	100 to 1000 nM
Fc1cccc(F)c1C1=Nc2c(C3CC3)n[nH]c2-c2ccccc2N1 [Compound 137, 3-cyclopropyl-5-(2,6-difluorophenyl)-1,6-dihydrobenzo[d]pyrazolo[3,4-f][1,3]diazepine]	100 to 1000 nM
Fc1cccc(Cl)c1C1=Nc2cn[nH]c2-c2cc(C(F)(F)F)ccc2N1 [Compound 47, 5-(2-chloro-6-fluorophenyl)-9-(trifluoromethyl)-1,6-dihydrobenzo[d]pyrazolo[3,4-f][1,3]diazepine]	100 to 1000 nM
Fc1cccc(Cl)c1C1=Nc2cn[nH]c2-c2cc(OC(F)(F)F)ccc2N1 [Compound 41, 5-(2-chloro-6-fluorophenyl)-9-(trifluoromethoxy)-1,6-dihydrobenzo[d]pyrazolo[3,4-f][1,3]diazepine]	100 to 1000 nM
Cc1ccc2c(c1)-c1[nH]ncc1NC(c1c(F)ccc(F)c1Cl)=N2 [Compound 185, 5-(2-chloro-3,6-difluorophenyl)-9-methyl-1,4-dihydrobenzo[d]pyrazolo[3,4-f][1,3]diazepine]	100 to 1000 nM
FCc1ccc2c(c1)-c1[nH]ncc1N=C(c1c(F)cccc1F)N2 [Compound 51, 5-(2,6-difluorophenyl)-9-(fluoromethyl)-1,6-dihydrobenzo[d]pyrazolo[3,4-f][1,3]diazepine]	100 to 1000 nM
Fc1cccc(Cl)c1C1=Nc2cnc(C(F)(F)F)cc2-c2[nH]ncc2N1 [Compound 188, 5-(2-chloro-6-fluorophenyl)-9-(trifluoromethyl)-1,4-dihydropyrazolo[4,3-d]pyrido[4,3-f][1,3]diazepine]	100 to 1000 nM
FCCc1ccc2c(c1)-c1n[nH]cc1NC(c1c(F)cccc1F)=N2 [Compound 204, 5-(2,6-difluorophenyl)-9-(2-fluoroethyl)-2,4-dihydrobenzo[d]pyrazolo[3,4-f][1,3]diazepine]	100 to 1000 nM
CCc1cc(F)c2c(c1)-c1[nH]ncc1NC(c1c(F)cccc1F)=N2 [Compound 167, 5-(2,6-difluorophenyl)-9-ethyl-7-fluoro-1,4-dihydrobenzo[d]pyrazolo[3,4-f][1,3]diazepine]	100 to 1000 nM
Cc1ccc2c(c1)-c1n[nH]cc1NC(c1c(F)cccc1C(F)(F)F)=N2 [Compound 206, 5-(2-fluoro-6-(trifluoromethyl)phenyl)-9-methyl-2,4-dihydrobenzo[d]pyrazolo[3,4-f][1,3]diazepine]	100 to 1000 nM
Fc1cccc(F)c1C1=Nc2cn[nH]c2-c2cc(OC(F)(F)F)ccc2N1 [Compound 40, 5-(2,6-difluorophenyl)-9-(trifluoromethoxy)-1,6-dihydrobenzo[d]pyrazolo[3,4-f][1,3]diazepine]	100 to 1000 nM
Fc1cccc(F)c1C1=Nc2cn[nH]c2-c2cc(-c3ccc[nH]3)cnc2N1 [Compound 87, 5-(2,6-difluorophenyl)-9-(1H-pyrrol-2-yl)-1,6-dihydropyrazolo[4,3-d]pyrido[3,2-f][1,3]diazepine]	100 to 1000 nM
CCc1ccc2c(c1)-c1[nH]ncc1N=C(c1c(F)cccc1F)N2 [Compound 44, 5-(2,6-difluorophenyl)-9-ethyl-1,6-dihydrobenzo[d]pyrazolo[3,4-f][1,3]diazepine]	10 to 100 nM
Cc1ccc2c(c1)-c1[nH]ncc1N=C(c1c(F)cc(F)cc1F)N2 [Compound 175, 9-methyl-5-(2,4,6-trifluorophenyl)-1,6-dihydrobenzo[d]pyrazolo[3,4-f][1,3]diazepine]	10 to 100 nM
O=C(Nc1ccc2c(c1)-c1n[nH]cc1NC(c1c(F)cccc1F)=N2)OCc1ccccc1 [Compound 207, benzyl(5-(2,6-difluorophenyl)-2,4-dihydrobenzo[d]pyrazolo[3,4-f][1,3]diazepin-9-yl)carbamate]	10 to 100 nM
Fc1cccc(F)c1C1=Nc2ccc(CCCl)cc2-c2n[nH]cc2N1 [Compound 209, 9-(2-chloroethyl)-5-(2,6-difluorophenyl)-2,4-dihydrobenzo[d]pyrazolo[3,4-f][1,3]diazepine]	10 to 100 nM
Cc1ccc2c(c1)-c1n[nH]c(C)c1NC(c1c(F)cccc1F)=N2 [Compound 212, 5-(2,6-difluorophenyl)-3,9-dimethyl-2,4-dihydrobenzo[d]pyrazolo[3,4-f][1,3]diazepine]	100 to 1000 nM
Cc1cc(F)c(C2=Nc3ccc(C)cc3-c3n[nH]cc3N2)c(F)c1 [Compound 179, 5-(2,6-difluoro-4-methylphenyl)-9-methyl-2,4-dihydrobenzo[d]pyrazolo[3,4-f][1,3]diazepine]	10 to 100 nM
